Assay results taken from US20110229450A1, “ENZYMES AND METHODS FOR DEGRADING S-TRIAZINES AND DIAZINES” (Commonwealth Scientific and industrial Research Organisation, priority 2008, published 2011).
Read-outs that look alike come from different tables or passages of the source.

Assays:
[1] = tested on: TrzN; settings: from Shapir et al. (2006); ametryn = 1; cited from earlier work
[2] = tested on: TrzN cc3.2; assay: Substrate range: hydrolysis of triazines by purified TrzN cc3.2 (loss of absorbance at 264 nm); assay type: biochemical; settings: for Hydrolysis by TrzN cc3.2: purified enzyme; for Relative Activity in TrzN cc3.2: specific activity at 100 μM substrate and 41 nM TrzN cc3.2, ametryn = 1
[3] = tested on: Apo-TrzNcc3.2; assay: Saturation of Apo-TrzNcc3.2 with Zn^2+; assay type: binding
[4] = read-out: Kd for zinc; cited from earlier work
[5] = assay type: cell-based, E. coli strain BL21 λDE3; settings: for Time to clear: 1% atrazine (w/v), 1 mM IPTG LB agar plates, 37° C., BL21 λDE3 pETcc2; for atrazine dechlorinase activity / clearing rate after substitution, compared with wild-type or parental gene: site-saturation and random mutagenesis
[6] = from 5 litres; Shapir et al. (2005); cited from earlier work
[7] = read-out: Km for atrazine; cited from earlier work
[8] = Atrazine clearing plate assay, low-level constitutive vector pCS150 in three E. coli strains; assay type: cell-based; settings: E. coli JM109, DH10β and BL21 λDE3, 37° C.
Description: Random and site-saturated libraries were screened using LB agar plates supplemented with 200 μg.mL^−1 ampicillin, 1 μM IPTG and impregnated with 1 mg.mL^−1 atrazine (90% atrazine w/w; Gesaprim 900 WG, Syngenta). […] The level of activity was determined by the rate at which the clarification occurred.
The entire coding region for both TrzNcc3.2 and wild-type TrzN were moved from the inducible, high-level expression vector pETcc2 into a low-level, constitutive expression vector (pCS150, Scott et al., 2009). The resultant vectors were used to transform E. coli JM109, DH10β, and BL21 λDE3 cells. The six resultant strains were tested for their rates of clearing using the atrazine clearing plate assay.

Molecule | Hydrolysis by TrzN cc3.2 [2] | Relative Activity in TrzN cc3.2 [2] | further results
CCNc1nc(NC(C)C)nc(SC)n1 [Ametryn, N2-ethyl-N4-isopropyl-6-methylthio-1,3,5-triazine-2,4-diamine] | able to hydrolyse | 1 | Relative Activity in TrzN* [1]: 1
CCNc1nc(Cl)nc(NC(C)C)n1 [Atrazine, 6-chloro-N-ethyl-N′-(1-methylethyl)-1,3,5-triazine-2,4-diamine] | able to hydrolyse | 1.36 | Relative Activity in TrzN* [1]: 0.16
CCNc1nc(Cl)nc(NC(C)(C)C#N)n1 [Cyanozine, 2-[[4-chloro-6-(ethyamino)-1,3,5-triazin-2-yl]amino]-2-methylpropanenitrile] | able to hydrolyse | 0.43 | 
CCN(CC)c1nc(Cl)nc(NC(C)C)n1 [Ipazine, 6-chloro-N,N-diethyl-N′-(1-methylethyl)-1,3,5-triazine-2,4-diamine] | able to hydrolyse | 0.07 | 
CSc1nc(NC(C)C)nc(NC(C)C)n1 [Prometryn, N2,N4-diisopropyl-6-methylthio-1,3,5-triazine-2,4-diamine] | able to hydrolyse | 1 | 
CC(C)Nc1nc(Cl)nc(NC(C)C)n1 [Propazine, 6-chloro-N,N′-bis(1-methylethyl)-1,3,5-triazine-2,4-diamine] | able to hydrolyse | 0.86 | 
CCNc1nc(Cl)nc(NCC)n1 [Simazine, 6-chloro-N,N″-diethyl-1,3,5-triazine-2,4-diamine] | able to hydrolyse | 1.36 | Relative Activity in TrzN* [1]: 0.41
CCNc1nc(NCC)nc(SC)n1 [Simetryn, N2,N4-diethyl-6-methylthio-1,3,5-triazine-2,4-diamine] | able to hydrolyse | 0.57 | Relative Activity in TrzN* [1]: 0.14
CCNc1nc(Cl)nc(N(CC)CC)n1 [Trietazine, 6-chloro-N,N,N′-triethyl-1,3,5-triazine-2,4-diamine] | able to hydrolyse | 0.04 | 
[Zn+2] [Zn^2+] |  |  | EC50 ([3]; read-out: ZnCl2 concentration at which half maximal activity was recovered): 2600 nM; Kd ([3]; read-out: dissociation constant for Zn^2+): 2600 nM
superoxide dismutase |  |  | Kd [4]: 0.01 nM
TrzN Wildtype: Wild-type TrzN triazine hydrolase, SEQ ID NO:1; codon optimised open reading frame TrzNco, SEQ ID NO:2 (protein, listed as Arthrobacter aurescens) MILIRGLTRVITFDDQERELEDADILIDGPKIVAVGKDLSDRSVSRTIDGRGMIALPGLINSHQHLYEGAMRAIPQLERVTMASWLEGVLTRSAGWWRDGKFGPDVIREVARAVLLESLLGGITTVADQHLFFPGATADSYIDATIEAATDLGIRFHAARSSMTLGKSEGGFCDDLFVEPVDRVVQHCLGLIDQYHEPEPFGMVRIALGPCGVPYDKPELFEAFAQMAADYDVRLHTHFYEPLDAGMSDHLYGMTPWRFLEKHGWASDRVWLAHAVVPPREEIPEFADAGVAIAHLIAPDLRLGWGLAPIREYLDAGITVGFGTTGSASNDGGNLLGDLRLAALAHRPADPNEPEKWLSARELLRMATRGSAECLGRPDLGVLEEGRAADIACWRLDGVDRVGVHDPAIGLIMTGLSDRASLVVVNGQVLVENERPVLADLERIVANTTALIPKNL |  |  | Time to clear [5]: None; Time to clear ([5]; listed as trzNco): > 30 days; yield of partial purification [6]: 2.8 mg; Km [7]: 20 µM; Time to clear [8]: > 12 days
T91S (protein) MILIRGLTRVITFDDQERELEDADILIDGPKIVAVGKDLSDRSVSRTIDGRGMIALPGLINSHQHLYEGAMRAIPQLERVTMASWLEGVLSRSAGWWRDGKFGPDVIREVARAVLLESLLGGITTVADQHLFFPGATADSYIDATIEAATDLGIRFHAARSSMTLGKSEGGFCDDLFVEPVDRVVQHCLGLIDQYHEPEPFGMVRIALGPCGVPYDKPELFEAFAQMAADYDVRLHTHFYEPLDAGMSDHLYGMTPWRFLEKHGWASDRVWLAHAVVPPREEIPEFADAGVAIAHLIAPDLRLGWGLAPIREYLDAGITVGFGTTGSASNDGGNLLGDLRLAALAHRPADPNEPEKWLSARELLRMATRGSAECLGRPDLGVLEEGRAADIACWRLDGVDRVGVHDPAIGLIMTGLSDRASLVVVNGQVLVENERPVLADLERIVANTTALIPKNL |  |  | atrazine dechlorinase activity / clearing rate after substitution, compared with wild-type or parental gene [5]: improved activities
D38N (protein) MILIRGLTRVITFDDQERELEDADILIDGPKIVAVGKNLSDRSVSRTIDGRGMIALPGLINSHQHLYEGAMRAIPQLERVTMASWLEGVLTRSAGWWRDGKFGPDVIREVARAVLLESLLGGITTVADQHLFFPGATADSYIDATIEAATDLGIRFHAARSSMTLGKSEGGFCDDLFVEPVDRVVQHCLGLIDQYHEPEPFGMVRIALGPCGVPYDKPELFEAFAQMAADYDVRLHTHFYEPLDAGMSDHLYGMTPWRFLEKHGWASDRVWLAHAVVPPREEIPEFADAGVAIAHLIAPDLRLGWGLAPIREYLDAGITVGFGTTGSASNDGGNLLGDLRLAALAHRPADPNEPEKWLSARELLRMATRGSAECLGRPDLGVLEEGRAADIACWRLDGVDRVGVHDPAIGLIMTGLSDRASLVVVNGQVLVENERPVLADLERIVANTTALIPKNL |  |  | clearing phenotype ([5]; D38X site saturation library in a L131P A159V background): apparently improved clearing phenotypes
S161G (protein) MILIRGLTRVITFDDQERELEDADILIDGPKIVAVGKDLSDRSVSRTIDGRGMIALPGLINSHQHLYEGAMRAIPQLERVTMASWLEGVLTRSAGWWRDGKFGPDVIREVARAVLLESLLGGITTVADQHLFFPGATADSYIDATIEAATDLGIRFHAARGSMTLGKSEGGFCDDLFVEPVDRVVQHCLGLIDQYHEPEPFGMVRIALGPCGVPYDKPELFEAFAQMAADYDVRLHTHFYEPLDAGMSDHLYGMTPWRFLEKHGWASDRVWLAHAVVPPREEIPEFADAGVAIAHLIAPDLRLGWGLAPIREYLDAGITVGFGTTGSASNDGGNLLGDLRLAALAHRPADPNEPEKWLSARELLRMATRGSAECLGRPDLGVLEEGRAADIACWRLDGVDRVGVHDPAIGLIMTGLSDRASLVVVNGQVLVENERPVLADLERIVANTTALIPKNL |  |  | atrazine dechlorinase activity / clearing rate after substitution, compared with wild-type or parental gene [5]: improved activities
L335M (protein) MILIRGLTRVITFDDQERELEDADILIDGPKIVAVGKDLSDRSVSRTIDGRGMIALPGLINSHQHLYEGAMRAIPQLERVTMASWLEGVLTRSAGWWRDGKFGPDVIREVARAVLLESLLGGITTVADQHLFFPGATADSYIDATIEAATDLGIRFHAARSSMTLGKSEGGFCDDLFVEPVDRVVQHCLGLIDQYHEPEPFGMVRIALGPCGVPYDKPELFEAFAQMAADYDVRLHTHFYEPLDAGMSDHLYGMTPWRFLEKHGWASDRVWLAHAVVPPREEIPEFADAGVAIAHLIAPDLRLGWGLAPIREYLDAGITVGFGTTGSASNDGGNMLGDLRLAALAHRPADPNEPEKWLSARELLRMATRGSAECLGRPDLGVLEEGRAADIACWRLDGVDRVGVHDPAIGLIMTGLSDRASLVVVNGQVLVENERPVLADLERIVANTTALIPKNL |  |  | atrazine dechlorinase activity / clearing rate after substitution, compared with wild-type or parental gene [5]: improved activities
P210A (protein) MILIRGLTRVITFDDQERELEDADILIDGPKIVAVGKDLSDRSVSRTIDGRGMIALPGLINSHQHLYEGAMRAIPQLERVTMASWLEGVLTRSAGWWRDGKFGPDVIREVARAVLLESLLGGITTVADQHLFFPGATADSYIDATIEAATDLGIRFHAARSSMTLGKSEGGFCDDLFVEPVDRVVQHCLGLIDQYHEPEPFGMVRIALGACGVPYDKPELFEAFAQMAADYDVRLHTHFYEPLDAGMSDHLYGMTPWRFLEKHGWASDRVWLAHAVVPPREEIPEFADAGVAIAHLIAPDLRLGWGLAPIREYLDAGITVGFGTTGSASNDGGNLLGDLRLAALAHRPADPNEPEKWLSARELLRMATRGSAECLGRPDLGVLEEGRAADIACWRLDGVDRVGVHDPAIGLIMTGLSDRASLVVVNGQVLVENERPVLADLERIVANTTALIPKNL |  |  | atrazine dechlorinase activity / clearing rate after substitution, compared with wild-type or parental gene [5]: improved activities
